From PubChem BioAssay (NCI)
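Cultured in 96-well plates, cells were exposed to test compound for 48 hours across five concentrations. GI50 is the concentration that inhibits growth by half. TGI denotes the concentration required for complete inhibition of growth.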

Columns and labels:
Assay in all cases: DTP human tumour cell line panel, 48 h
[1] = system: U251 CNS
[2] = system: SNB-75 CNS
[3] = system: UACC-257 melanoma
[4] = system: HS 578T breast
[5] = system: MOLT-4 leukemia
[6] = system: SF-539 CNS
[7] = system: T-47D breast
[8] = system: SNB-19 CNS
[9] = system: K-562 leukemia
[10] = system: M14 melanoma

Structure (SMILES)	TGI [1]	TGI [2]	TGI [3]	TGI [4]	TGI [5]	TGI [6]	TGI [7]	TGI [8]	TGI [9]	GI50 [4]	GI50 [6]	TGI [10]
C#CC(C)(C)Oc1cc(OC)c2c(=O)c3ccccc3n(C)c2c1	> 100 µM	70.1 µM	26.4 µM	60.6 µM	22.3 µM	76 µM	27.9 µM	93.8 µM	55.5 µM	–	–	–
COc1cn2c(cc1=O)COc1ccc(-c3ccccc3)cc1-2	> 100 µM	> 100 µM	> 87.1 µM	> 100 µM	> 100 µM	> 100 µM	> 83.3 µM	> 100 µM	> 100 µM	43.6 µM	43.6 µM	> 100 µM
COc1cc(C2C(Cl)C(=O)N2c2ccc(Br)cc2)cc(I)c1O (stereo unspecified)	> 100 µM	> 100 µM	> 100 µM	> 100 µM	> 100 µM	> 100 µM	> 100 µM	> 100 µM	> 100 µM	–	–	> 100 µM
CN(C)c1ccc(/C=C(\NC(=O)c2ccccc2)C(=O)Nc2ccccc2C(=O)NN2C(=O)CSC2c2ccc(N(C)C)cc2)cc1 (stereo unspecified)	> 100 µM	> 100 µM	32.2 µM	> 100 µM	> 100 µM	> 100 µM	> 100 µM	> 100 µM	> 100 µM	–	–	> 100 µM
c1ccc2c(c1)CC1c3[nH]c4ccccc4c3CCN21 (stereo unspecified)	> 10 µM	> 10 µM	> 10 µM	> 10 µM	> 10 µM	> 10 µM	> 10 µM	> 10 µM	> 10 µM	–	–	> 10 µM
COC(=O)Cc1c(C2=Nc3ccccc3C2(O)CC(=O)OC)[nH]c2ccccc12 (stereo unspecified)	> 100 µM	> 100 µM	> 100 µM	> 100 µM	71.2 µM	85.5 µM	> 100 µM	> 100 µM	> 100 µM	–	–	> 100 µM
CN(C)c1ccc(-c2nc(-c3cc4c(ccc5ccccc54)oc3=O)cs2)cc1	> 100 µM	> 100 µM	> 100 µM	> 100 µM	> 100 µM	> 100 µM	> 100 µM	> 100 µM	> 100 µM	–	–	> 100 µM
CC1(C)OC[C@@H](/C=C\CCO[Si](c2ccccc2)(c2ccccc2)C(C)(C)C)N1C(=O)c1ccccc1	45.5 µM	> 100 µM	24.1 µM	55.1 µM	47.1 µM	45.4 µM	> 100 µM	> 100 µM	52.1 µM	–	–	32.8 µM
N#Cc1c(=O)c2cccnc2n2c1[nH]c1ccccc12	> 100 µM	> 100 µM	> 100 µM	69.9 µM	> 100 µM	> 100 µM	> 100 µM	> 100 µM	> 100 µM	–	–	> 100 µM
O=[N+]([O-])c1ccc2nc3ccc([N+](=O)[O-])cn3c2c1	> 100 µM	> 100 µM	> 100 µM	> 100 µM	> 100 µM	> 100 µM	> 100 µM	> 100 µM	> 100 µM	–	–	> 100 µM
O=C1c2ccccc2S(=O)(=O)c2ccccc21	> 100 µM	> 100 µM	> 100 µM	> 100 µM	> 100 µM	> 100 µM	> 100 µM	> 100 µM	> 100 µM	–	–	> 100 µM
CSc1c(C(C)=O)c(O)n(-c2ccc(Cl)cc2)c(=O)c1C#N	> 100 µM	> 100 µM	> 100 µM	> 100 µM	55.3 µM	> 100 µM	> 100 µM	> 100 µM	92.2 µM	–	–	> 100 µM
O=c1oc2ccccc2cc1-c1nc2ccc([N+](=O)[O-])cc2o1	> 100 µM	> 100 µM	> 100 µM	> 100 µM	> 100 µM	> 100 µM	> 100 µM	68.5 µM	> 100 µM	–	–	> 100 µM
[N-]=[N+]=NC1(c2ccccc2)C(=O)Nc2ccccc2C1=O (stereo unspecified)	> 100 µM	> 100 µM	> 100 µM	76.9 µM	76.6 µM	> 100 µM	> 100 µM	> 100 µM	> 100 µM	–	–	74.6 µM
COc1ccc(/C=N/Nc2[nH]c(=S)nc3[nH]ncc23)cc1	40.7 µM	> 100 µM	> 100 µM	> 100 µM	> 100 µM	> 100 µM	44.2 µM	59.2 µM	> 100 µM	–	–	> 100 µM
O=C1CCC2(CC1)Cc1ccccc1C2O (stereo unspecified)	> 100 µM	> 100 µM	> 100 µM	> 100 µM	> 100 µM	> 100 µM	> 100 µM	> 100 µM	> 100 µM	–	–	> 100 µM
CCOC(=O)c1cc(-c2ccc(OC)c(OC)c2)c[nH]1	> 10 µM	> 10 µM	> 10 µM	> 10 µM	> 10 µM	> 10 µM	> 10 µM	> 10 µM	> 10 µM	–	–	> 10 µM
CCOC(=O)CCC(NC(=O)OCc1ccccc1)C(=O)NNC(=O)OC(C)(C)C (stereo unspecified)	> 100 µM	> 100 µM	> 100 µM	> 100 µM	> 100 µM	> 100 µM	> 100 µM	> 100 µM	> 100 µM	–	–	> 100 µM
